Data from ChEMBL document CHEMBL1649153, “Population pharmacokinetics of high-dose, prolonged-infusion cefepime in adult critically ill patients with ventilator-associated pneumonia” (Antimicrob Agents Chemother, 2009).

What was measured:
Homo sapiens = assay: Toxicity in critically ill patient with ventilator-associated pneumoniae assessed as adverse effects at […] administered as 3 hr infusion every 8 hrs by HPLC; assay type: organism-based; conditions: in vivo, iv
Serum = assay: Serum creatinine level in critically ill patient with ventilator-associated pneumoniae at […] administered as 3 hr infusion every 8 hrs by HPLC; assay type: ADME, organism-based; conditions: human, in vivo, iv

serum creatinine (Serum): 0.8 mg/dL
SMILES: CO/N=C(\C(=O)N[C@@H]1C(=O)N2C(C(=O)[O-])=C(C[N+]3(C)CCCC3)CS[C@H]12)c1csc(N)n1 [CEFEPIME]
Activity (Homo sapiens): Non-toxic
